Literature values, collected in patent US20250340675A1 (priority 2022, published 2025).

Assays:
mice [1] = conditions: oral administration in mice
mice [2] = conditions: neurotoxic adverse effects; oral administration in mice
albino mice = conditions: mouse, in vivo
[3] = in vivo

OCCCCO [1,4-Butanediol]
median lethal dose (LD50) (mice [1]): 1,525 mg/kg | no observed adverse effect level (NOAEL) (mice [2]): 100 mg/kg per day

O=C(O)c1cc(O)c(O)c(O)c1 [gallic acid, 3,4,5-trihydroxy benzoic acid]
LD50 (acute toxicity) (albino mice): greater than 2000 mg/kg

Hyaluronic acid [HA]
half-life ([3]; human): 24÷48 hours | average turnover rate [3]: 5 g/day
